Starred links: 1 amine or outer side, 2 acyl side, 3 side chain; linkers in the order of their positions; H or OH if unused. Non-standard residues stand in square brackets, D forms with d. Groups on a side chain read outwards from the residue. *: point of attachment. C18 diacid = O=C(O)CCCCCCCCCCCCCCCCC(=O)*; γGlu = O=C(O)[C@H](CCC(=O)[*:2])N[*:1]; Aib = CC(C)(N)C(=O)O
Assays:
[1] = system: Total Parental Nutrition (TPN) Piglet Model; experiment: Small intestine mass (weight per centimeter) in total parenteral nutrition (TPN) piglet model; type: in vivo; conditions: piglets on TPN
Description: (§1) One-week-old piglets were placed in heated (25-30° C.) cages. Jugular and duodenal catheters were surgically implanted as described in paragraph 2 (method and material) in Jain 2015. Subsequently, preconditioned jackets and ambulatory pumps for TPN (total parenteral nutrition) delivery were fitted. Animals were started on their randomly assigned groups to receive enteral nutrition (EN; n=11), intravenous total parenteral nutrition plus vehicle (TPN; n=8) or TPN plus compound 18 (Cpd 18; n=13). Cpd 18 and vehicle were administered as daily subcutaneous injections at a dose of either 0.008 mg/kg (n=2), 0.033 mg/kg (n=2), 0.066 mg/kg (n=2) or 0.133 mg/kg (n=7).
(§2) Enteral animals (EN) received a swine milk replacement formula (formula LitterLife as described in Jain 2015, paragraph 2.6). All other animals received total parenteral nutrition (Clinimix E from Baxter as described in Jain 2015, paragraph 2.6).
Post-euthanasia (see Jain 2015, paragraph 2.7), the abdomen was opened, and the small intestine was removed. Small segments of the small bowel were sliced and weighed (see Jain 2015, paragraph 2.78). Tissue was then cut into smaller pieces, preserved for histology and snap-frozen in liquid nitrogen to be stored at −80° C. for analysis.

[2] = system: Total Parental Nutrition (TPN) Piglet Model; experiment: Histology of small bowel, villous/crypt (V/C) ratio, in total parenteral nutrition (TPN) piglet model; type: in vivo, piglets
Description: as §1, §2
Segments of fresh tissue (2-3 cm) from the small intestine were fixed in 4% buffered formalin for 24 hours and then stored in 70% ethanol at room temperature for 24 hours. […] Using the small-bowel H&E slides, the mean villous height and crypt depth were quantified in vertically well-oriented villous-crypt columns with the slide reviewer blinded to the treatment to compute a villous/crypt (V/C) ratio for animals in each group.

## H-H[Aib]EGSFTSELATILDK([γGlu-C18 diacid])QAARDFIAWLIQHKITD-OH [Cpd 18]
[1]; daily subcutaneous injections 0.008, 0.033, 0.066 or 0.133 mg/kg, sacrifice on day 14, FIG. 1
  mass of the proximal intestine (weight per centimeter): preserved the mass in a dose-dependent fashion
[1]; daily subcutaneous injections 0.008, 0.033, 0.066 or 0.133 mg/kg, sacrifice on day 14, FIG. 2
  mass of the distal intestine (weight per centimeter): preserved the mass in a dose-dependent fashion
[1]; highest dose (0.133 mg/kg daily s.c.), sacrifice on day 14, FIG. 1
  weight of the proximal intestine at the highest dose compared to animals on EN: approximately the same as in the animals on EN
[1]; highest dose (0.133 mg/kg daily s.c.), sacrifice on day 14, FIG. 2
  weight of the distal intestine at the highest dose, greater than that in the animals on TPN: approximately 50%
[2]; piglet on TPN, 0.133 mg/kg for 14 days, FIG. 6 compared to FIG. 4
  histological section of the small bowel, villi and crypts: villi and crypts are comparable to the animal receiving enteral nutrition
[2]; piglets on TPN, 0.133 mg/kg daily s.c., sacrifice on day 14, FIG. 3
  V/C ratio of the small bowel: completely preserved the V/C ratio to the same ratio seen in the animals on EN

From US20230129788A1, “GLP-1/GLP-2 DUAL AGONISTS” (Zealand Pharma A/S, priority 2020, published 2023)
